Assay results published in publication PMC10861593, “Kisspeptin-10 binding to Gpr54 in osteoclasts prevents bone loss by activating Dusp18-mediated dephosphorylation of Src” (Nature Communications, 2024).
Entries after “also recorded” stand apart in the source; their conditions may differ. Where no end group is shown, it is not given here. [ ]: non-standard residue; d: D form. azaGly = NNC(=O)O

Columns and labels:
GPR54 = test system: GPR54; set-up: method as in PMID 22975302; conditions: cited from earlier work
Excerpt: (§1) Bone targeting Kp-10 ([…] D-Tyr–Asn-(D-Trp)-Asn-Ser-Phe-(azaGly)-Leu-Arg (Me)-Phe-NH2) was designed using six repetitive sequences of aspartate, serine, and serine, which is a bone surface-targeting delivery system as previously described.

[1] = cited from earlier work
Excerpt: as §1

OVX mice = assay: OVX-induced bone loss model (and sham-operated mice); assay type: in vivo, mouse
Excerpt: Fig. 7 Kp-10 ameliorated OVX-induced bone loss. a, c Representative micro-CT images of femoral trabecular bone (a) and cortical bone (c). Female C57 mice treated with vehicle (Sham) or 50 nmol/kg (DSS)*6-Kp-10, ovariectomized mice (OVX) treated with vehicle or 50nmol/kg (DSS)*6-Kp-10 twice one week by intraperitoneal injection (n = 6 per group). Scale bar, 500 µm. b, d Parameter analysis of femurs from the mice above. BMD bone mineral density, BV/TV bone volume as a fraction of total bone volume, Tb.Th trabecular thickness, Tb.N trabecular number, Tb.Sp trabecular separation. e Representative TRAP staining images of femurs from Fig. 7a. f Histomorphometry analysis of the femurs from Fig. 7a. Oc.S/BS osteoclast surface per bone surface, N.Oc/B.Pm osteoclast bone surface density, ES/BS eroded surface per bone surface. Data represent means ± SEM. P values were determined by one-way ANOVA analysis (b, d, f). Representative results were obtained from at least three independent experiments. Source data are provided as a Source Data file.
3D micro-CT analyses were performed as previously described. We scanned the femur using in vitro X-ray microtomography (Skyscan 1272, Bruker micro CT) at a pixel size of 9 µm, and analyzed the results according to the manufacturer’s instructions. Region-of-interest (ROI) was defined from 10 to 110 image slices, where the growth plate slice was defined as 0 mm. The contrast was defined from 68–255; 3D analysis, BMD, and 3D models were analyzed using CTAn software (Bruker micro CT). 3D models were adjusted in CT Vox software (Bruker micro CT).
Bone tissue was removed of excess tissues and fixed with 4% formalin, decalcified with 0.5 M EDTA for 10–14 days, embedded with paraffin, sectioned, and stained using the TRAP staining kit (Sigma-Aldrich, 387A-1KT). The third lumbar spine vertebrae (L3) were fixed with 4% formalin, sectioned, and subjected to Von Kossa staining as described previously[60],[61]. For double calcian labeling assay, 4−5 week-old mice were administrated calcian (30 μg/mL) through intraperitoneal injection for the first time and the second time after 10 days. The third lumbar spine vertebrae (L3) were fixed with 4% formalin, sectioned, and subjected to Goldner’s Masson trichrome staining, or acquisition of fluorescence images. Histomorphometric measurements were made using the OsteoMeasure Analysis System (Osteometrics, Atlanta, GA, USA) according to standard criteria.
For animal studies in vivo, mice were randomized for weight. For the OVX-induced bone loss model, 2-month-old female C57BL/6 mice were sham-operated (sham) or ovariectomized (OVX) and randomly divided into indicated groups. Vehicle, Kp-10 or (DSS)*6-Kp-10 was injected into the tail vein twice per week. After two months of treatment, the femurs and the L3 lumbrae were isolated for micro-CT or histomorphometric analysis. 3D micro-CT analyses were performed according to a standard protocol. BMD and bone volume were analyzed by CT-analysis software (CTAn, Bruker micro CT, Kontich, Belgium) and images were reconstituted by CT-volume software (CTvol, skyscan, CTAn, Bruker micro CT, Kontich, Belgium).
Supplementary Fig. 16 a Representative image of Von Kossa staining of sham-operated female C57 mice treated with vehicle (Sham, n=4), ovariectomized mice (OVX, n=3), and OVX mice treatment with 1 nmol/kg Kp-10 (n=6),10 nmol/kg Kp-10 (n=6),1 nmol/kg (DSS)*6-Kp-10 (n=5) or 10 nmol/kg (DSS)*6-Kp-10 (n=6) twice one week by intraperitoneal injection for two months. […]

Dusp18 knockout mice = assay: bone and osteoclast parameters in Dusp18 knockout mice; assay type: in vivo, mouse; conditions: femur
Excerpt: Data represent means ± SEM. […] Representative results were obtained from at least three independent experiments. Source data are provided as a Source Data file.

FSH and LH = assay: Elisa of serum FSH and LH; assay type: in vivo, mouse; conditions: 10 nmol/kg twice per week for two months, versus vehicle; n = 6 per group
Excerpt: Supplementary Fig. 16 a Representative image of Von Kossa staining of sham-operated female C57 mice treated with vehicle (Sham, n=4), ovariectomized mice (OVX, n=3), and OVX mice treatment with 1 nmol/kg Kp-10 (n=6),10 nmol/kg Kp-10 (n=6),1 nmol/kg (DSS)*6-Kp-10 (n=5) or 10 nmol/kg (DSS)*6-Kp-10 (n=6) twice one week by intraperitoneal injection for two months. […] BV/TV, bone volume as a fraction of total bone volume; Tb. Th, trabecular thickness; Tb. Sp, trabecular separation; Tb. N, trabecular number. c Elisa assay showing LH, FSH derived from the serum of sham-operated female C57 mice treated with vehicle (Sham+ vehicle) or 10 nmol/kg (DSS)*6-Kp-10 (Sham+10 nmol/kg Kp-10), ovariectomized mice treated with vehicle (OVX+ vehicle) or 10 nmol/kg (DSS)*6-Kp-10 (OVX+ 10 nmol/kg Kp-10) twice one week by intraperitoneal injection for two months. n=6 per group. Error bars are ± SEM. P-values were determined by two-way ANOVA analysis (b, c) ***P <0.001, ****P <0.0001. “ns” means no significant difference. Representative results were observed from at least three independent experiments. Source data are provided as a Source Data file.

Row | Substance | GPR54 agonistic activity (GPR54) | metabolic stability [1] | bone mass, 50 nmol/kg, sham and OVX mice (OVX mice; 50 nmol/kg twice per week, micro-CT, femur, n = 6 per group) | osteoclast activation, 50 nmol/kg, sham and OVX mice (OVX mice; 50 nmol/kg twice per week, TRAP staining, Oc.S/BS, N.Oc/B.Pm, ES/BS, n = 6 per group) | bone protective effect versus Kp-10 (OVX mice; OVX mice, 1 or 10 nmol/kg twice per week for two months, Von Kossa staining, trabecular bone parameters) | bone loss / bone protection in vivo (summary statement) (OVX mice; in vivo, OVX-induced bone loss model) | rescue of Dusp18 deletion induced osteoclast activity (Dusp18 knockout mice; TRAP staining and osteoclast parameters) | rescue of Dusp18 deletion induced bone mass change (Dusp18 knockout mice; micro-CT and bone parameters, n = 5) | serum FSH and LH, sham and OVX mice (FSH and LH)
1 | D-Tyr–Asn-(D-Trp)-Asn-Ser-Phe-(azaGly)-Leu-Arg (Me)-Phe-NH2 [Modified Kp-10] | excellent GPR54 agonistic activity | high metabolic stability | – | – | – | – | – | – | –
2 | DSSDSSDSSDSSDSSDSS[dY]N[dW]NSF[azaGly]LR(Me)F-NH2 [(DSS)*6-Kp-10] | – | – | bone mass increased | suppressed osteoclast activation both in sham-operated and OVX mice | rescued OVX induced bone loss more effectively than Kp-10; also recorded: showed better bone protective effect; also recorded: showed better effects than Kp-10 on bone protection | showed bone protection in the OVX-induced bone loss model by inhibiting osteoclast activity; also recorded: protects against bone loss | not by (DSS)*6-KP-10 | not by (DSS)*6-KP-10 | same level of FSH and LH
